Results published in patent US8426364B2, “Method of preventing progression of hypertension-induced heart failure with PKC peptides” (The Board of Trustees of the Leland Stanford Junior …, priority 0011, dated 2013).

Tests used:
Dahl salt-sensitive rats [1] = assay: Histological analysis of left ventricle (Masson's trichrome, H&E); format: in vivo, rat
Procedure: For morphometric analysis, left ventricle (LV) specimens from 17-week-old rats (n=4 for each group) were fixed with 10% buffered formalin and embedded in paraffin. Several sections were prepared from each specimen and stained with either hematoxylin and eosin (H&E) for assessment of inflammation and proliferation of vascular cells, or with Masson's trichrome stain to assess the area of cardiac fibrosis using a point-counting method (22, 23).

92 genes = assay: Real-time PCR gene expression in LV tissue; format: in vivo, rat; conditions: LV from 17-week-old rats; 92 genes examined
Procedure: In another study, the effects of pharmacological inhibition or activation of εPKC and olmesartan on gene expression profile was analyzed. To address the molecular differences in the protective effects induced by εPKC inhibition and olmesartan, real-time PCR was used to monitor changes in gene expression resulting from each treatment. The effects of chronic treatment (as above) with the εPKC inhibitor (TAT47-57-εV1-2), the εPKC activator (TAT47-57-ΨεRACK) or olmesartan (ARB) in LV from 17-week-old rats on the expression of 92 genes was examined. […]
Two μg of total RNA extracted from the LV tissues of each […] rat (n=6 for each group) were converted to first-strand cDNA by reverse transcription using High Capacity cDNA Archive kit (Applied Biosystems). […] The fluorescence signals were normalized to the ubiquitously expressed housekeeping gene, β-actin. Fold-changes of mRNA expression of each group compared to the LS-control were determined by comparing cycle threshold values (24). Statistical analysis was assessed by 1-way factorial ANOVA with Fisher's test. […]

Dahl salt-sensitive rats [2] = assay: Hypertension-induced heart failure rat model (survival, echocardiography, blood pressure, body weight); format: in vivo; conditions: for Systolic Wall Stress: calculated (SBP × ESD)/[4 × PWT × (1 + PWT/ESD)]; for Systolic Wall Stress / EDD (LV end-diastolic diameter) / ESD (LV end-systolic diameter) / FS (LV fractional shortening) / PWT (LV posterior wall thickness): mean ± SEM; for survival: treated for six weeks, compared to TAT control peptide
Procedure: To determine whether εPKC plays any role in the transition to heart failure and death, HS rats were treated with the selective εPKC inhibiting peptide, TAT47-57-εV1-2 (εV1-2; 2.8 μg/kg/day using a subcutaneous Alzet pump (26)) or with saline as a control (HS-control) from the age of 11 weeks (when compensatory hypertrophy is seen) to 17 weeks (when heart failure is apparent; FIG. 1A)). Another group of hypertensive rats was treated for the same period with a common clinical treatment, the angiotensin II receptor type 1 blocker (ARB, olmesartan, Olm; 3 mg/kg/day).
Animal protocols were approved by the Stanford University Institutional Animal Care and Use Committee. Dahl salt-sensitive rats provide a reliable animal model of hypertension-induced heart failure. When placed on 8% NaCl-containing diet from the age of 6 weeks (HS rats), the rats develop compensative left ventricular hypertrophy by the age of 11 weeks, and die from heart failure when they reach 16 to 21 weeks (21, 25). Male Dahl salt-sensitive rats were fed with an 8% NaCl-containing diet (Dahl-high-salt) or with a 0.3% NaCl low salt diet (LS-control; n=25) from the age of 6 weeks onward as previously reported (3, 21). Dahl-high-salt rats were treated between the ages of 11 and 17 weeks with the selective εPKC inhibiting peptide, TAT47-57-εV1-2 (εV1-2; n=10, 2.8 μg/kg/day), with TAT47-57-εV1-1 (εV1-1; n=14, 2.8 μg/kg/day), or with saline as a control (HS-Control; n=12), using osmotic pumps implanted subcutaneously. A fourth group was treated with angiotensin II receptor type 1 blocker, olmesartan (ARB; n=12, 3 mg/kg/day in 0.5% carboxymethylcellulose) delivered by daily gavage for the same period. A fifth group was treated from 15 to 17 weeks of age with the selective εPKC activating peptide, TAT47-57-ΨεRACK (ΨεRACK; n=17, 2.8 μg/kg/day) using an osmotic pump implanted subcutaneously (FIG. 1).
The osmotic pumps were replaced every two weeks, but were discontinued after the age of 17 weeks because half of the HS-control rats died by that age. Additional groups were treated with εV1-2 (using the Alzet pump) together with ARB (n=12) or with ARB alone (n=13) from 11 to 19 weeks of age (FIG. 6). Survival rate, fractional shortening and blood pressure were evaluated in these groups. Systolic blood pressure was measured by the tail-cuff method (BP-2000 Blood Pressure Analysis System, Visitech Systems, Inc), and fractional shortening was measured by transthoracic echocardiography (Vivid 7, GE). Additional control Dahl-high-salt rats were treated with TAT47-57 carrier peptide between 11 to 17 weeks or between 15 to 17 weeks, with vehicle for ARB (0.5% carboxymethylcellulose) or were left untreated and evaluated for survival rate, cardiac function and blood pressure.

Dahl salt-sensitive rats [3] = assay: as above; format: in vivo; conditions: age of 11, 13, 15 and 17 weeks; β peptide study
[4] = 17 weeks of age, high-salt rats, εV1-2 and Olm treated 11 to 17 weeks, ΨεR 15 to 17 weeks
[5] = 24 weeks of age, treated 11 to 19 weeks of age

With CCCc1nc(C(C)(C)O)c(C(=O)O)n1Cc1ccc(-c2ccccc2-c2nnn[nH]2)cc1 [Olm, olmesartan] the “reduction of fibrosis in LV” value (Dahl salt-sensitive rats [1]; as compared with HS-control, 17-week-old rats, Masson's trichrome) was roughly 50%, the “number of genes with expression modified by this treatment but not the other” value (92 genes) was 15 genes and the “Systolic Wall Stress” value (Dahl salt-sensitive rats [2]; 17 weeks of age) was 50.7 ± 4.4 g/cm^2. The “EDD (LV end-diastolic diameter)” value (Dahl salt-sensitive rats [2]; [4]) was 7.3 ± 0.2 mm, the “ESD (LV end-systolic diameter)” value (Dahl salt-sensitive rats [2]; [4]) was 3.1 ± 0.2 mm and the “FS (LV fractional shortening)” value (Dahl salt-sensitive rats [2]; [4]) was 58.4 ± 1.6 %. The “PWT (LV posterior wall thickness)” value (Dahl salt-sensitive rats [2]; [4]) was 1.5 ± 0.04 mm, the “EDD (LV end-diastolic diameter)” value (Dahl salt-sensitive rats [2]; [5]) was 7.9 ± 0.2 mm and the “ESD (LV end-systolic diameter)” value (Dahl salt-sensitive rats [2]; [5]) was 4.9 ± 0.5 mm. The “FS (LV fractional shortening)” value (Dahl salt-sensitive rats [2]; [5]) was 38.3 ± 4.6%, the “PWT (LV posterior wall thickness)” value (Dahl salt-sensitive rats [2]; [5]) was 1.5 ± 0.03 mm and the “Systolic Wall Stress” value (Dahl salt-sensitive rats [2]; 24 weeks of age, treated 11 to 19 weeks) was 105.8 ± 13.6 g/cm^2.
For CC[C@H](C)[C@H](NC(=O)[C@@H]1CCCN1C(=O)[C@H](C)NC(=O)[C@H](CC(=O)O)NC(=O)[C@H](Cc1c[nH]cn1)NC(=O)[C@@H](N)CSSC[C@H](N)C(=O)N[C@@H](Cc1ccc(O)cc1)C(=O)NCC(=O)N[C@@H](CCCNC(=N)N)C(=O)N[C@@H](CCCCN)C(=O)N[C@@H](CCCCN)C(=O)N[C@@H](CCCNC(=N)N)C(=O)N[C@@H](CCCNC(=N)N)C(=O)N[C@@H](CCC(N)=O)C(=O)N[C@@H](CCCNC(=N)N)C(=O)N[C@@H](CCCNC(=N)N)C(=O)N[C@@H](CCCNC(=N)N)C(=O)O)C(=O)NCC(=O)N[C@@H](Cc1ccc(O)cc1)C(=O)N[C@@H](CC(=O)O)C(=O)O [ΨεR], the arterial stenosis (Dahl salt-sensitive rats [1]; hypertensive rats, chronic treatment) was “induced arterial stenosis” and the arterial stenosis (Dahl salt-sensitive rats [1]; normotensive Dahl salt-sensitive rats on a low-salt diet) was “did not cause arterial stenosis”.
“βIIV5-3: βIIV5-3 peptide inhibitor QEVIRN (SEQ ID NO: 3), from the V5 domain of βIIPKC (Synthetic peptide inhibitor)” was tested, and the systolic blood pressure (Dahl salt-sensitive rats [3]) was “less than in the TAT or βIV5-3 peptide-treated animals”, the “left ventricular weight to body weight ratio (LVW/BW)” value (Dahl salt-sensitive rats [2]; 17-weeks old rats) was “reduced” and the fractional shortening (Dahl salt-sensitive rats [2]; at 17 weeks, vs TAT control, in words) was “significantly reduced fractional shortening”. The wall stress (Dahl salt-sensitive rats [2]; hypertensive rats, in words) was “reduces wall stress” and the survival (Dahl salt-sensitive rats [2]) was “prolonged survival significantly longer than treatment with the βIV5-3 peptide inhibitor”.
With “βIV5-3: βIV5-3 PKC peptide inhibitor KLFIMN (SEQ ID NO: 2), from the V5 domain of βIPKC (Synthetic PKC peptide inhibitor)” the survival (Dahl salt-sensitive rats [2]) was “prolonged survival”.
